Each cell line was assayed with CC1=C(C(=NN1)C)CC2=C(C3=C(S2)N(C(=O)N(C3=O)C)CC(C)C)C(=O)N4C[C@@H](CO4)O (assay: relative viability (nuclei count vs DMSO), 5 days (fraction); higher = more cells survive). Details: 0.0025 µM.
How it was run: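 Lung cancer cell lines in 1536-well plates were kept overnight at 37 °C, then pinned with five library-drug doses (not always all listed) spaced by √10 on vehicle-anchored plates. After 5 days without medium change, cells were fixed, permeabilised and Hoechst-stained in one step, imaged at 4×, and nuclei were counted with MetaXpress. Viability is treated-well nuclei divided by vehicle-well nuclei, taken as the median over plates. Plates passed only with control CV below 25% and at least one doubling.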
Cell Line NCI-H1395 has a relative viability of 0.962.
In the case of 201T, the relative viability is reported as 1.04.
With NCI-H1915 the relative viability was 1.04.
Work on HCC-827 yielded a relative viability of 0.904.
For LXF-289, the relative viability was 1.02.
Work on NCI-H23 yielded a relative viability of 1.01.
With NCI-H1299 the relative viability was 1.01.
For NCI-H647, the relative viability was 1.03.
CAL-12T was tested, and the relative viability was 1.03.
Work on NCI-H1651 yielded a relative viability of 0.962.
Work on EPLC-272H yielded a relative viability of 1.02.
Cell Line NCI-H2228 has a relative viability of 0.925.
NCI-H1792 gave a relative viability of 0.933.
Cell Line NCI-H1355 has a relative viability of 1.08.
Work on NCI-H3122 yielded a relative viability of 1.01.
NCI-H1437 showed a relative viability of 1.05.
In the case of NCI-H1755, the relative viability is reported as 1.03.
With NCI-H2023 the relative viability was 1.03.
HCC-15 was tested, and the relative viability was 1.04.
NCI-H1793 was tested, and the relative viability was 0.94.
PC-14 gave a relative viability of 1.06.
EKVX was tested, and the relative viability was 1.08.
Work on LC-2-ad yielded a relative viability of 0.982.
NCI-H1563 gave a relative viability of 1.06.
Cell Line NCI-H1944 has a relative viability of 1.04.
Work on NCI-H1975 yielded a relative viability of 1.07.
RERF-LC-KJ was tested, and the relative viability was 1.01.
ABC-1 was tested, and the relative viability was 0.978.
Work on NCI-H358 yielded a relative viability of 1.09.
For NCI-H650, the relative viability was 0.987.
For PC-3 [JPC-3], the relative viability was 1.1.

Same assay, conditions: 0.007906 µM
Work on NCI-H1395 yielded a relative viability of 0.841.
201T gave a relative viability of 0.983.
With NCI-H1915 the relative viability was 1.03.
With HCC-827 the relative viability was 1.08.
LXF-289 was tested, and the relative viability was 1.02.
NCI-H23 was tested, and the relative viability was 1.05.
In the case of NCI-H1299, the relative viability is reported as 1.
With NCI-H647 the relative viability was 1.1.
CAL-12T showed a relative viability of 1.03.
Work on NCI-H1651 yielded a relative viability of 1.08.
Work on EPLC-272H yielded a relative viability of 0.906.
NCI-H2228 gave a relative viability of 1.24.
In the case of NCI-H1792, the relative viability is reported as 0.773.
NCI-H1355 showed a relative viability of 1.03.
NCI-H3122 showed a relative viability of 0.971.
NCI-H1437 showed a relative viability of 0.981.
NCI-H1755 gave a relative viability of 1.
NCI-H2023 was tested, and the relative viability was 1.09.
HCC-15 was tested, and the relative viability was 1.03.
For NCI-H1793, the relative viability was 0.995.
PC-14 was tested, and the relative viability was 1.06.
For EKVX, the relative viability was 1.03.
Work on LC-2-ad yielded a relative viability of 0.93.
NCI-H1563 was tested, and the relative viability was 1.06.
With NCI-H1944 the relative viability was 1.1.
NCI-H1975 gave a relative viability of 0.997.
In the case of RERF-LC-KJ, the relative viability is reported as 1.07.
ABC-1 showed a relative viability of 0.921.
NCI-H358 was tested, and the relative viability was 0.992.
In the case of NCI-H650, the relative viability is reported as 0.91.
PC-3 [JPC-3] gave a relative viability of 1.05.

Same assay, conditions: 0.025 µM
Cell Line NCI-H1395 has a relative viability of 0.713.
201T showed a relative viability of 0.982.
For NCI-H1915, the relative viability was 0.993.
HCC-827 gave a relative viability of 1.06.
In the case of LXF-289, the relative viability is reported as 0.975.
For NCI-H23, the relative viability was 0.867.
For NCI-H1299, the relative viability was 0.952.
NCI-H647 was tested, and the relative viability was 0.932.
With CAL-12T the relative viability was 0.958.
NCI-H1651 showed a relative viability of 0.986.
EPLC-272H gave a relative viability of 0.968.
NCI-H2228 showed a relative viability of 1.13.
In the case of NCI-H1792, the relative viability is reported as 0.751.
Work on NCI-H1355 yielded a relative viability of 0.994.
NCI-H3122 was tested, and the relative viability was 0.99.
With NCI-H1437 the relative viability was 0.953.
Work on NCI-H1755 yielded a relative viability of 1.03.
For NCI-H2023, the relative viability was 0.934.
Work on HCC-15 yielded a relative viability of 1.01.
NCI-H1793 was tested, and the relative viability was 1.
With PC-14 the relative viability was 0.889.
EKVX showed a relative viability of 0.952.
LC-2-ad was tested, and the relative viability was 0.956.
NCI-H1563 was tested, and the relative viability was 0.97.
Cell Line NCI-H1944 has a relative viability of 0.982.
With NCI-H1975 the relative viability was 0.873.
RERF-LC-KJ gave a relative viability of 0.985.
Cell Line ABC-1 has a relative viability of 0.714.
In the case of NCI-H358, the relative viability is reported as 1.01.
In the case of NCI-H650, the relative viability is reported as 0.869.
In the case of PC-3 [JPC-3], the relative viability is reported as 1.01.

Same assay, conditions: 0.07906 µM
In the case of NCI-H1395, the relative viability is reported as 0.795.
201T gave a relative viability of 0.96.
In the case of NCI-H1915, the relative viability is reported as 0.991.
For HCC-827, the relative viability was 1.04.
With LXF-289 the relative viability was 0.971.
Cell Line NCI-H23 has a relative viability of 0.975.
With NCI-H1299 the relative viability was 1.01.
For NCI-H647, the relative viability was 0.915.
CAL-12T was tested, and the relative viability was 1.12.
NCI-H1651 was tested, and the relative viability was 0.963.
Cell Line EPLC-272H has a relative viability of 0.974.
In the case of NCI-H2228, the relative viability is reported as 0.907.
NCI-H1792 was tested, and the relative viability was 0.744.
NCI-H1355 showed a relative viability of 0.993.
Cell Line NCI-H3122 has a relative viability of 1.01.
For NCI-H1437, the relative viability was 0.996.
NCI-H1755 gave a relative viability of 0.989.
Work on NCI-H2023 yielded a relative viability of 0.976.
HCC-15 was tested, and the relative viability was 1.04.
Work on NCI-H1793 yielded a relative viability of 0.886.
PC-14 was tested, and the relative viability was 1.12.
For EKVX, the relative viability was 0.883.
LC-2-ad gave a relative viability of 1.04.
In the case of NCI-H1563, the relative viability is reported as 1.07.
In the case of NCI-H1944, the relative viability is reported as 0.933.
NCI-H1975 showed a relative viability of 0.988.
Cell Line RERF-LC-KJ has a relative viability of 0.98.
Cell Line ABC-1 has a relative viability of 0.994.
NCI-H358 was tested, and the relative viability was 1.02.
NCI-H650 showed a relative viability of 0.919.
Work on PC-3 [JPC-3] yielded a relative viability of 1.04.

Same assay, conditions: 0.25 µM
Work on NCI-H1395 yielded a relative viability of 0.719.
With 201T the relative viability was 0.988.
In the case of NCI-H1915, the relative viability is reported as 1.03.
HCC-827 showed a relative viability of 1.06.
Cell Line LXF-289 has a relative viability of 1.02.
NCI-H23 showed a relative viability of 1.09.
NCI-H1299 gave a relative viability of 1.03.
With NCI-H647 the relative viability was 0.934.
CAL-12T gave a relative viability of 1.13.
In the case of NCI-H1651, the relative viability is reported as 0.993.
EPLC-272H gave a relative viability of 1.01.
In the case of NCI-H2228, the relative viability is reported as 1.08.
For NCI-H1792, the relative viability was 0.736.
NCI-H1355 was tested, and the relative viability was 0.952.
NCI-H3122 was tested, and the relative viability was 1.03.
In the case of NCI-H1437, the relative viability is reported as 0.991.
Cell Line NCI-H1755 has a relative viability of 1.03.
Cell Line NCI-H2023 has a relative viability of 1.03.
HCC-15 gave a relative viability of 1.12.
NCI-H1793 was tested, and the relative viability was 0.686.
PC-14 showed a relative viability of 1.16.
EKVX showed a relative viability of 0.989.
Work on LC-2-ad yielded a relative viability of 1.04.
Work on NCI-H1563 yielded a relative viability of 0.973.
NCI-H1944 gave a relative viability of 0.944.
For NCI-H1975, the relative viability was 1.02.
For RERF-LC-KJ, the relative viability was 1.06.
For ABC-1, the relative viability was 0.902.
With NCI-H358 the relative viability was 0.983.
